Like-named read-outs stand apart in the source and are kept apart here.

A short description of assay [1]: Quenching of peptide tryptophan fluorescence by ferric ions (stoichiometry, apparent Kd). The assay is classed as binding. As to conditions: mean ± S.E. The method, boiled down: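 Ferric ions titrated into peptide in 10 mM sodium acetate pH 4.0, 100 mM NaCl, 0.005% Tween 20; Trp fluorescence quenching read at ex 290/em 345 nm. Stoichiometry and apparent Kd from linear regression of Cs/fa = pCa + Kd/(1−fa); means ±S.E. of independent experiments.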

For another assay, the system named is HT29 cells. Description: HT29 cell proliferation, MTT assay. The assay is classed as cell-based, human.
The test system of assay [2] is AGS gastric carcinoma cells. Description: AGS cell proliferation, MTT assay. As to conditions: treatment alone: 10 nM Ggly; 32 mol/mol Bi without Ggly; fetal calf serum positive control. The assay is classed as cell-based, human. In general terms: Formazan colour is commonly taken as a measure of viable cells.
A further assay addresses T1, CCK-2 receptor (Homo sapiens, UniProt P32239).
T1 sequence (P32239 1-447): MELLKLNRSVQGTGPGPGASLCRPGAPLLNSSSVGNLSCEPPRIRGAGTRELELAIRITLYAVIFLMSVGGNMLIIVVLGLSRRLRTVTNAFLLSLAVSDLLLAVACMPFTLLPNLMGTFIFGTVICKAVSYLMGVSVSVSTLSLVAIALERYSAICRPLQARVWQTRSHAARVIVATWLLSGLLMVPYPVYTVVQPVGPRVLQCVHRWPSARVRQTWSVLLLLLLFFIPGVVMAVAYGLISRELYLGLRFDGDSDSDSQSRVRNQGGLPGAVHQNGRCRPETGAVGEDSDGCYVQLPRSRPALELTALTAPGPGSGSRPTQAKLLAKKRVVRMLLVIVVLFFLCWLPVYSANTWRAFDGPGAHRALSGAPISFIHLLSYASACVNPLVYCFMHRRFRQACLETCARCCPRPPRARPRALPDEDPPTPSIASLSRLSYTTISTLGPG
Nature of the assay: Gamide-stimulated inositol phosphate production in COS-7 cells transfected with the CCK-2 receptor. The assay is classed as cell-based. On the set-up: COS-7 cells transiently transfected with CCK-2 receptor cDNA; expressed in transfected cells; host or cells: COS-7. How it is done: Intracellular inositol phosphate production was determined as described previously (Qian et al, 1993). IMGE-5 cells (10^5 cells/ml) were plated in 24-multiwell culture plates in DMEM supplemented with 10% FBS, 200 IU/ml penicillin and 200 μg/ml streptomycin. 24 h later, cells were incubated with DMEM supplemented with antibiotics and Myo-[2-^3H]inositol (2.5 μCi/well) and shifted to 39° C. for 16 h. Cells were then washed with pre-warmed DMEM and incubated (20-30 minutes, 37° C.) with DMEM supplemented with 20 mM LiCl. Loaded cells were then washed in 1 ml of IP buffer (135 mM NaCl, 20 mM N-(2-hydroxyethyl)piperazine-N′-(2-ethanesulfonic acid), 2 mM CaCl2, 1.2 mM MgSO4, 1 mM ethylene glycol-bis(2-aminoethylether)-N,N,N′,N′-tetraacetic acid, 10 mM LiCl, and 0.5% bovine serum albumin, pH 7.45) and incubated with or without agonist in a final volume of 0.5 ml of IP buffer. After 1-h incubation at 37° C., the reaction was stopped by removing the incubation medium and adding 1 ml of a mixture of ethanol/HCl (2000:1; v/v). One ml of each aliquot was applied to a column containing 1.6 ml of a 1:2 (v/v) Dowex AG-1-X8 anion exchange resin in distilled water. The columns were washed with 4 ml of distilled water, followed by 4 ml of 40 mM HCOONH4, and inositol phosphates were eluted with 4 ml of 1 M HCOONH4. The radioactivity of each eluate was counted after addition of Complete phase combining system solution (Amersham, UK). For the positive control, IMGE-5 cells were incubated with a combination of 30 mM NaF and 10 μM AlCl3 under the same experimental conditions.
Gamide-stimulated inositol phosphate production was measured in COS-7 cells transfected with the CCK-2 receptor. […] Bismuth ions alone had no effect on inositol phosphate production in CCK-2 receptor-transfected COS-7 cells and HT29 cells, even at the highest concentration tested.
We then investigated the role of the individual glutamates in biological activity. The effects of the mutants GamideE7A and GamideE8,9A on inositol phosphate production in COS-7 cells transiently transfected with the CCK-2 receptor were compared.

As to “Ggly: glycine-extended gastrin17, 18 amino acid non-amidated gastrin, SEQ ID NO:4, residues 55-72 of progastrin (XGPWLEEEEEAYGWMDFG; (1)..(1) pyroglutamate; listed as Homo sapiens)”, the Kd in assay [1] (10 mM sodium acetate pH 4.0, 100 mM NaCl, 0.005% Tween 20, read-out: Kd (μM), apparent dissociation constant for ferric ions) was determined as 0.18 ± 0.04 µM. Moreover, the “HT29 cell proliferation compared to the control” value with HT29 cells (10 nM Ggly, MTT) amounted to 120%. Further, in assay [2], the “Mean Response ± SEM (% Control), proliferation of AGS cells” value is reported as 126.0 ± 2.3 % Control.
Turning to `CSCC[C@H](NC(=O)[C@H](Cc1c[nH]c2ccccc12)NC(=O)CNC(=O)[C@H](Cc1ccc(O)cc1)NC(=O)[C@H](C)NC(=O)[C@H](CCC(=O)O)NC(=O)[C@H](CCC(=O)O)NC(=O)[C@H](CCC(=O)O)NC(=O)[C@H](CCC(=O)O)NC(=O)[C@H](CCC(=O)O)NC(=O)[C@H](CC(C)C)NC(=O)[C@H](Cc1c[nH]c2ccccc12)NC(=O)[C@@H]1CCCN1C(=O)CNC(=O)[C@@H]1CCC(=O)N1)C(=O)N[C@@H](CC(=O)O)C(=O)N[C@@H](Cc1ccccc1)C(N)=O` [Gamide], the Kd was 0.2 ± 0.14 µM in assay [1] (pH 4.0, read-out: Kd (μM) of ferric ion binding (amidated gastrin17 and related peptides)); 0.2 ± 0.1 µM in assay [1] (pH 4.0, model with two identical independent binding sites, read-out: Ferric Kd). The “Stimulation of inositol phosphate production” value at CCK-2 receptor (10 nM peptide) is recorded as “No significant difference was observed in the extent of stimulation”. Besides, the “Increase in inositol phosphate production” value at CCK-2 receptor (COS-7 cells transfected with the CCK-2 receptor, 10 μM AlF4−, 10 nM Gamide) amounted to 4 fold.
As for `[Bi+3]` [bismuth ions], the “Effect on proliferation induced by Ggly” value with HT29 cells (2, 8 or 32 moles/mole, 10 nM Ggly, HT29) is listed as “significantly decreased the proliferation induced by Ggly”. Also, the “Effect of bismuth ions alone on proliferation” value in the assay with HT29 cells (HT29, highest concentrations tested) is “no effect”. Moreover, in assay [2], the “Mean Response ± SEM (% Control), proliferation of AGS cells” value is recorded as 102.2 ± 4.2 % Control. In addition, at CCK-2 receptor (2, 8, and 32 moles Bi3+/mole Gamide, 10 nM Gamide), the “Effect on Gamide-induced inositol phosphate production” value was “no significant effect”. Moreover, on CCK-2 receptor (CCK-2 receptor-transfected COS-7 cells, highest concentration tested), the “Effect of bismuth ions alone on inositol phosphate production” value was “no effect”.

These data come from patent US20070031511A1, “Method of treatment” (priority 2003, published 2007).
